Laboratory results: article PMC2651907, “ARC (NSC 188491) has identical activity to Sangivamycin (NSC 65346) including inhibition of both P-TEFb and PKC” (2009)

target: T1, P-TEFb (cdk9/cyclin T1) (Homo sapiens, UniProt P50750); assay: […]-ATP kinase assay with PDKtide, recombinant P-TEFb; assay type: biochemical
T1 construct: recombinant P-TEFb (cdk9/cyclin T1); with cyclin T1
T1 sequence (P50750 whole entry): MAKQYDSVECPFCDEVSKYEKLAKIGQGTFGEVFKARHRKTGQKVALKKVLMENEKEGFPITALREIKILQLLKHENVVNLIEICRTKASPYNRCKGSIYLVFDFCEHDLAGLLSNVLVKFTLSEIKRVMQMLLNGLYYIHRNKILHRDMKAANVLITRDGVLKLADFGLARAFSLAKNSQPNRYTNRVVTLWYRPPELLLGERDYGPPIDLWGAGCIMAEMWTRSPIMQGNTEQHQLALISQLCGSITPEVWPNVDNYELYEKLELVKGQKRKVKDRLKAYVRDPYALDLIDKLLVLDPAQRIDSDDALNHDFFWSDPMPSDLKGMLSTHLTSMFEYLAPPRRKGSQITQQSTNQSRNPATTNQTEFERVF
T1 sequence (O60563 whole entry partner): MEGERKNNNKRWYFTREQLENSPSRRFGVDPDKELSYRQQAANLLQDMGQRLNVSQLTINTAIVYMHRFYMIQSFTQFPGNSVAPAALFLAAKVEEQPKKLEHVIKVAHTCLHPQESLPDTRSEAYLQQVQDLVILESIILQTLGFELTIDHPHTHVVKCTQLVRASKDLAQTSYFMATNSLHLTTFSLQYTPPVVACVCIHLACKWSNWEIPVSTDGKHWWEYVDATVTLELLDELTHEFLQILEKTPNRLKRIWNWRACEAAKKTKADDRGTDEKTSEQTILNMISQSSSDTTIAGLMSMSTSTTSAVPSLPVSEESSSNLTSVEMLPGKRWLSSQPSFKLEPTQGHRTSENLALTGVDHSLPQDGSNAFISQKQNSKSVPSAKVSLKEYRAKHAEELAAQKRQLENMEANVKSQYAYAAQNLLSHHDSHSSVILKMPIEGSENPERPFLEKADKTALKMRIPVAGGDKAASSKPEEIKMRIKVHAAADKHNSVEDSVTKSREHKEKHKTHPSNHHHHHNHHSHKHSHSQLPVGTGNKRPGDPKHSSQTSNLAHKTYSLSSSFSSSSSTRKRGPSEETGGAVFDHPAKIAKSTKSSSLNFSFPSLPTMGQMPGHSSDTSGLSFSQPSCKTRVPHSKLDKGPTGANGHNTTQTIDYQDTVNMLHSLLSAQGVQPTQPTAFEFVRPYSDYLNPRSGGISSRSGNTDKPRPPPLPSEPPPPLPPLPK

Question: `NNc1c(C(N)=O)c2c(N)ncnc2n1[C@@H]1O[C@H](CO)[C@@H](O)[C@H]1O` [ARC, 4-amino-6-hydrazino-7-β-d-ribofuranosyl-7H-pyrrolo-(2,3-d)-pyrimidine-5-carboxamide] was tested. Which “32P-ATP kinase assay with PDKtide, recombinant P-TEFb” value did it give?
Answer: ARC sangivamycin and toyocamycin prevent recombinant P-TEFb from phosphorylating substrate peptide (Fig. 4E)

Question: For `NC(=O)c1cn([C@@H]2O[C@H](CO)[C@@H](O)[C@H]2O)c2ncnc(N)c12` [sangivamycin], which “32P-ATP kinase assay with PDKtide, recombinant P-TEFb” value is on record?
Answer: ARC sangivamycin and toyocamycin prevent recombinant P-TEFb from phosphorylating substrate peptide (Fig. 4E)

Question: With `N#Cc1cn([C@@H]2O[C@H](CO)[C@@H](O)[C@H]2O)c2ncnc(N)c12` [toyocamycin] as the molecule, how does the “32P-ATP kinase assay with PDKtide, recombinant P-TEFb” value read?
Answer: ARC sangivamycin and toyocamycin prevent recombinant P-TEFb from phosphorylating substrate peptide (Fig. 4E)
